Tests used:
Experiment in all cases: Weeding effect in post-emergence stage (greenhouse pot spray)
Format in all cases: in vivo
[1] = system: Digitaria sanguinalis
From the text: (§1) The activity level criteria for plant damage (i.e., growth control rate) are as follows:
(§2) The above growth control rates are fresh weight control rates.
(§3) Experiment on weeding effect in post-emergence stage: monocotyledonous and dicotyledonous weed seeds (Descurainia sophia, Capsella bursa-pastoris, Abutilon theophrasti, Galium aparine, Stellaria media, Lithospermum arvense, rorippa indica, Alopecurus aequalis, Beckmannia syzigachne, Sclerochloa dura, Phleum paniculatum, Bromus japonicus, Aegilops tauschii, Phalaris arundinacea, Amaranthus retroflexus, Chenopodiaceae, Commelina communis, Sonchus arvensis, convolvulus arvensis, Cirsium setosum, Solanum nigrum, Acalypha australis, Digitaria sanguinalis, Echinochloa crusgalli, Setaria viridis, Setaria glauca, Leptochloa chinensis, Monochoria vaginalis, Sagittaria trifolia, Scirpus juncoides, Cyperus rotundus, Cyperus iria, Cyperus difformis, Fimbristylis, Portulaca oleracea, Xanthium sibiricum, Pharbitis nil) and major crop seeds (wheat, corn, rice, soybean, cotton, oilseed rape, millet, sorghum, potato, sesame, ricinus) were placed in plastic pots filled with soil, then covered with 0.5-2 cm of soil, allowed to grow in a good greenhouse environment. After 2 weeks of sowing, the test plants were treated in the 2 to 3 leaf stage. The tested compounds of the present invention were respectively dissolved in acetone, then added with Tween 80 and 1.5 liter/ha of emulsifiable concentrate of methyl oleate as synergist, diluted with a certain amount of water to obtain a solution with a certain concentration, and sprayed with a spray tower onto the plants. After the application, the plants were cultured for 3 weeks in the greenhouse, and then the experimental results of the weeding were counted. […]

[2] = system: Echinochloa crusgalli
From the text: as §1, §2, §3

[3] = system: Setaria viridis
From the text: as §1, §2, §3

| Compound | Digitaria sanguinahs (activity level) ([1]; Table 3, dose 500 g a.i./ha) | Echinochloa crusgali (activity level) ([2]; Table 3, dose 500 g a.i./ha) | Setaria viridis (activity level) ([3]; Table 3, dose 500 g a.i./ha) | other results |
| --- | --- | --- | --- | --- |
| Cc1nnc(NC(=O)c2ccc(C(F)(F)F)c([S@@+]([O-])CCC(F)F)c2F)o1 [1-405 (R-configuration)] |  |  |  | Digitaria sanguinahs (activity level) ([1]; Table 3, dose 125 g a.i./ha): 5 (Level 5: growth control rate is above 85%); Echinochloa crusgali (activity level) ([2]; Table 3, dose 125 g a.i./ha): 5 (Level 5: growth control rate is above 85%); Setaria viridis (activity level) ([3]; Table 3, dose 125 g a.i./ha): 5 (Level 5: growth control rate is above 85%) |
| Cc1nnc(NC(=O)c2ccc(C(F)(F)F)c([S@@+]([O-])CCC(F)(C(F)(F)F)C(F)(F)F)c2F)o1 [1-413 (R-configuration)] | 5 (Level 5: growth control rate is above 85%) | 5 (Level 5: growth control rate is above 85%) | 5 (Level 5: growth control rate is above 85%) |  |
| CCCC[S@+]([O-])c1c(C(F)(F)F)ccc(C(=O)Nc2nnco2)c1F [3-14 (R-configuration)] |  |  |  | Digitaria sanguinahs (activity level) ([1]; Table 3, dose 60 g a.i./ha): 5 (Level 5: growth control rate is above 85%); Echinochloa crusgali (activity level) ([2]; Table 3, dose 60 g a.i./ha): 5 (Level 5: growth control rate is above 85%); Setaria viridis (activity level) ([3]; Table 3, dose 60 g a.i./ha): 5 (Level 5: growth control rate is above 85%) |
| COCC[S@+]([O-])c1c(C(F)(F)F)ccc(C(=O)Nc2nnc(C)o2)c1F [1-57 (R-configuration)] |  |  |  | Digitaria sanguinahs (activity level) ([1]; Table 3, dose 125 g a.i./ha): 5 (Level 5: growth control rate is above 85%); Echinochloa crusgali (activity level) ([2]; Table 3, dose 125 g a.i./ha): 5 (Level 5: growth control rate is above 85%); Setaria viridis (activity level) ([3]; Table 3, dose 125 g a.i./ha): 5 (Level 5: growth control rate is above 85%) |
| CCC[S@@+]([O-])c1c(C(F)(F)F)ccc(C(=O)Nc2nnc(C(C)C)o2)c1F [6-8 (R-configuration)] |  |  |  | Digitaria sanguinahs (activity level) ([1]; Table 3, dose 250 g a.i./ha): 5 (Level 5: growth control rate is above 85%); Echinochloa crusgali (activity level) ([2]; Table 3, dose 250 g a.i./ha): 5 (Level 5: growth control rate is above 85%); Setaria viridis (activity level) ([3]; Table 3, dose 250 g a.i./ha): 5 (Level 5: growth control rate is above 85%) |
| Cc1nnc(NC(=O)c2ccc(C(F)(F)F)c([S@@+]([O-])CCC3CC3)c2F)o1 [1-395 (R-configuration)] | 5 (Level 5: growth control rate is above 85%) | 5 (Level 5: growth control rate is above 85%) | 5 (Level 5: growth control rate is above 85%) |  |
| Cc1nnc(NC(=O)c2ccc(C(F)(F)F)c([S@@+]([O-])CCCC(F)(F)F)c2F)o1 [1-411 (R-configuration)] |  |  |  | Digitaria sanguinahs (activity level) ([1]; Table 3, dose 250 g a.i./ha): 5 (Level 5: growth control rate is above 85%); Echinochloa crusgali (activity level) ([2]; Table 3, dose 250 g a.i./ha): 5 (Level 5: growth control rate is above 85%); Setaria viridis (activity level) ([3]; Table 3, dose 250 g a.i./ha): 5 (Level 5: growth control rate is above 85%) |
| Cc1nnc(NC(=O)c2ccc(C(F)(F)F)c([S@+]([O-])CC(C)(C)C)c2F)o1 [1-392 (R-configuration)] | 5 (Level 5: growth control rate is above 85%) | 5 (Level 5: growth control rate is above 85%) | 5 (Level 5: growth control rate is above 85%) |  |
| CC(C)C[S@@+]([O-])c1c(C(F)(F)F)ccc(C(=O)Nc2nnco2)c1F [3-20 (R-configuration)] |  |  |  | Digitaria sanguinahs (activity level) ([1]; Table 3, dose 125 g a.i./ha): 5 (Level 5: growth control rate is above 85%); Echinochloa crusgali (activity level) ([2]; Table 3, dose 125 g a.i./ha): 5 (Level 5: growth control rate is above 85%); Setaria viridis (activity level) ([3]; Table 3, dose 125 g a.i./ha): 5 (Level 5: growth control rate is above 85%) |
| Cc1nnc(NC(=O)c2ccc(C(F)(F)F)c([S@@+]([O-])CCO)c2F)o1 [1-429 (R-configuration)] | 5 (Level 5: growth control rate is above 85%) | 5 (Level 5: growth control rate is above 85%) | 5 (Level 5: growth control rate is above 85%) |  |
| Cc1nnc(NC(=O)c2ccc(C(F)(F)F)c([S@@+]([O-])CCCC#N)c2F)o1 [1-428 (R-configuration)] | 5 (Level 5: growth control rate is above 85%) | 5 (Level 5: growth control rate is above 85%) | 5 (Level 5: growth control rate is above 85%) |  |
| CC#CC[S@+]([O-])c1c(C(F)(F)F)ccc(C(=O)Nc2nnc(C)o2)c1F [1-402 (R-configuration)] | 5 (Level 5: growth control rate is above 85%) | 5 (Level 5: growth control rate is above 85%) | 5 (Level 5: growth control rate is above 85%) |  |
| CCOC[S+]([O-])c1c(C(F)(F)F)ccc(C(=O)Nc2nnc(C)o2)c1F (stereo not drawn) [1-444 (R-configuration)] | 5 (Level 5: growth control rate is above 85%) | 5 (Level 5: growth control rate is above 85%) | 5 (Level 5: growth control rate is above 85%) |  |
| CC(C)=NOCC[S@@+]([O-])c1c(C(F)(F)F)ccc(C(=O)Nc2nnc(C)o2)c1F [1-525 (R-configuration)] | 5 (Level 5: growth control rate is above 85%) | 5 (Level 5: growth control rate is above 85%) | 5 (Level 5: growth control rate is above 85%) |  |
| C=CCC[S@+]([O-])c1c(C(F)(F)F)ccc(C(=O)Nc2nnc(C)o2)c1F [1-397 (R-configuration)] |  |  |  | Digitaria sanguinahs (activity level) ([1]; Table 3, dose 125 g a.i./ha): 5 (Level 5: growth control rate is above 85%); Echinochloa crusgali (activity level) ([2]; Table 3, dose 125 g a.i./ha): 5 (Level 5: growth control rate is above 85%); Setaria viridis (activity level) ([3]; Table 3, dose 125 g a.i./ha): 5 (Level 5: growth control rate is above 85%) |
| CC(=O)C[S@@+]([O-])c1c(C(F)(F)F)ccc(C(=O)Nc2nnc(C)o2)c1F [1-552 (R-configuration)] |  |  |  | Digitaria sanguinahs (activity level) ([1]; Table 3, dose 125 g a.i./ha): 5 (Level 5: growth control rate is above 85%); Echinochloa crusgali (activity level) ([2]; Table 3, dose 125 g a.i./ha): 5 (Level 5: growth control rate is above 85%); Setaria viridis (activity level) ([3]; Table 3, dose 125 g a.i./ha): 5 (Level 5: growth control rate is above 85%) |
| Cc1nnc(NC(=O)c2ccc(C(F)(F)F)c([S@@+]([O-])CCCN)c2F)o1 [1-432 (R-configuration)] | 5 (Level 5: growth control rate is above 85%) | 5 (Level 5: growth control rate is above 85%) | 5 (Level 5: growth control rate is above 85%) |  |
| CC(C)[S@+]([O-])c1c(C(F)(F)F)ccc(C(=O)Nc2nnco2)c1F [3-11 (R-configuration)] |  |  |  | Digitaria sanguinahs (activity level) ([1]; Table 3, dose 125 g a.i./ha): 5 (Level 5: growth control rate is above 85%); Echinochloa crusgali (activity level) ([2]; Table 3, dose 125 g a.i./ha): 5 (Level 5: growth control rate is above 85%); Setaria viridis (activity level) ([3]; Table 3, dose 125 g a.i./ha): 5 (Level 5: growth control rate is above 85%) |
| Cc1nnc(NC(=O)c2ccc(C(F)(F)F)c([S@+]([O-])CCCO)c2F)o1 [1-430 (R-configuration)] | 5 (Level 5: growth control rate is above 85%) | 5 (Level 5: growth control rate is above 85%) | 5 (Level 5: growth control rate is above 85%) |  |
| C/C=C/C[S@@+]([O-])c1c(C(F)(F)F)ccc(C(=O)Nc2nnc(C)o2)c1F [1-398 (R-configuration)] |  |  |  | Digitaria sanguinahs (activity level) ([1]; Table 3, dose 250 g a.i./ha): 5 (Level 5: growth control rate is above 85%); Echinochloa crusgali (activity level) ([2]; Table 3, dose 250 g a.i./ha): 5 (Level 5: growth control rate is above 85%); Setaria viridis (activity level) ([3]; Table 3, dose 250 g a.i./ha): 5 (Level 5: growth control rate is above 85%) |
| COC(C)C[S@+]([O-])c1c(C(F)(F)F)ccc(C(=O)Nc2nnc(C)o2)c1F (stereo partly drawn) [1-447 (R-configuration)] | 5 (Level 5: growth control rate is above 85%) | 5 (Level 5: growth control rate is above 85%) | 5 (Level 5: growth control rate is above 85%) |  |

Reference: US20230041563A1, “N-(1,3,4-OXADIAZOL-2-YL)ARYLCARBOXAMIDES OR SALTS THEREOF, PREPARATION METHODS, HERBICIDAL COMPOSITIONS AND USES THEREOF” (priority 2018, published 2023)
